# Measured values reported in US20240383856A1 (Zedira GmbH, priority 2021, published 2024).
# Where two headings read alike, the source gives them in different places.
# Experiments:
# [1] = Caco-2 permeability assay (CacoReady kit); assay type: in vitro ADME; details: human
# Outline: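 Read-out is the permeability coefficient Papp, obtained from transport across a Caco-2 barrier prepared from a ready-to-use kit following the manufacturer's instructions.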
# [2] = logD by shake flask method (octanol / PBS pH 7.4, HPLC); assay type: physicochemical; details: octanol / PBS pH 7.4, shake flask
# Outline: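 Shake-flask partition of compound between octanol and phosphate-buffered saline at pH 7.4, with each phase quantified by HPLC to give LogD.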
# [3] = molecular target: T1, recombinant human transglutaminase 2 (Homo sapiens, UniProt P21980); assay: Transglutaminase assay (DCC-assay): incorporation of dansylcadaverine into dimethylcasein; assay type: biochemical
# T1 construct: purchased Zedira T022
# T1 sequence (P21980 1-687): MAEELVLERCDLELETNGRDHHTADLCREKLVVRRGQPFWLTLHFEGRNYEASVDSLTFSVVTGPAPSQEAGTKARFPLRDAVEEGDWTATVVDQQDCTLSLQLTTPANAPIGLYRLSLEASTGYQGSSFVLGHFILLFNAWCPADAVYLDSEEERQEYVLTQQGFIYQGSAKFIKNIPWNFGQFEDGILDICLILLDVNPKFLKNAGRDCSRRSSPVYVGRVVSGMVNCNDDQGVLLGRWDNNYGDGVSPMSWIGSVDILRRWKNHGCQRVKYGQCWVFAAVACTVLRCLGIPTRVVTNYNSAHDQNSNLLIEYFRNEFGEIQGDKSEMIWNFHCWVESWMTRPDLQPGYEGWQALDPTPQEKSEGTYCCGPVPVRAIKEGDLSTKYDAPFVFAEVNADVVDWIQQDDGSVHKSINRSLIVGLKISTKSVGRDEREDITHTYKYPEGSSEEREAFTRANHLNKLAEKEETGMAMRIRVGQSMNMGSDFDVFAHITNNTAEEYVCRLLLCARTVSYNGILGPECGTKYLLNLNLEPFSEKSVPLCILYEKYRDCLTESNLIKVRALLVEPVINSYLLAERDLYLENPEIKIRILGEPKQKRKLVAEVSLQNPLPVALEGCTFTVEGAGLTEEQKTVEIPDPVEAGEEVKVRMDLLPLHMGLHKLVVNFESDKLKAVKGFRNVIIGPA
# Outline: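 Recombinant human TG2 (10 nM final) incorporates dansylcadaverine into N,N-dimethylcasein. Reaction mix: 50 mM Tris-HCl, 10 mM CaCl2, 10 mM glutathione, 2.5% glycerol, 16.7 µM dansylcadaverine, 4 µM dimethylcasein, 200 mM NaCl, pH 8.0. Fluorescence (ex 330/em 500 nm) was followed 30 min at 37 °C; the 20–30 min slope, expressed as % of 2% DMSO control, gave IC50.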
# [4] = Single-dose oral pharmacokinetic profile in mice; assay type: in vivo; details: male C57BL/6 mice, single oral dose 200 mg/kg; for CL/F / MRT / half-life / AUC(0-t) / Cmax: mouse, plasma
# Method: Presumed from promising Papp values (permeability coefficients, see below), the 5 inventors had proven the oral bioavailability of the inhibitors of the present application by the representative compounds II-3, II-15, and II-28. For this selected set of representative compounds, pharmacokinetic profiles were determined in male C57BL/6 mice (N=3, each). Briefly, the compounds were administered as single-dose soluble, oral formulation [20 mg/ml in PBS/(2—Hydroxypropyl)-β-cyclodextrin formulation] at 200 mg/kg. Plasma samples were taken at (0, 0.25, 0.5, 1, 2, 4, and 6 hours) and analyzed by LC-MS to determine the concentration of the representative compounds.
# [5] = Caco-2, Caco-2, read-out: Papp [cm/s] ×10^−6
# [6] = Caco-2, Caco-2 barrier, CacoReady kit, above 1×10^−6 cm/s classified as permeable
# [7] = TG2, table with the PK study, read-out: IC50
# [8] = recombinant human TG2 10 nM, dansylcadaverine incorporation into dimethylcasein, read-out: IC50 TG2
SMILES,"Papp [1, 5] [×10⁻⁶ cm/s]","Papp [1, 6] [×10⁻⁶ cm/s]",logD [2],"IC90 ([3]; TG2, table with the PK study) [nM]","IC50 [3, 7] [nM]","IC50 [3, 8] [nM]",Kel [4] [h⁻¹],CL/F [4] [mL/min/kg],MRT [4] [h],half-life [4] [h],AUC(0-t) [4] [ng·h/mL],Cmax ([4]; read-out: Cmax) [µM],Cmax ([4]; read-out: Cmax [ng/ml]) [ng/mL]
"CNC(=O)C(=O)CC[C@H](NC(=O)c1sc(C(F)(F)F)nc1C)C(=O)Nc1cccn(CC(=O)NC2C3CC4CC(C3)CC2C4)c1=O (stereo partly drawn) [II-15, (S)-N1-(1-(2-(2-adamantylamino)-2-oxoethyl)-2-oxo-1,2-dihydropyridin-3-yl)-N6-methyl-2-(4-methyl-2-(trifluoromethyl)thiazole-5-carboxamido)-5-oxohexanediamide]",5.9,1 to 10,1 to 3,375,35,< 40,0.9,102,1.1,0.9,36900,48.6,32300
"CNC(=O)C(=O)CC[C@H](NC(=O)c1cc(Cl)sc1Cl)C(=O)Nc1cccn(CC(=O)NC2C3CC4CC(C3)CC2C4)c1=O (stereo partly drawn) [II-28, (S)-2-(2,5-dichlorothiophene-3-carboxamido)-N1-(1-(2-(2-adamantylamino)-2-oxoethyl)-2-oxo-1,2-dihydropyridin-3-yl)-N6-methyl-5-oxohexanediamide]",7.4,1 to 10,1 to 3,240,24,< 40,0.6,247,1.6,1.1,14500,23.3,15100
"CCc1nnsc1C(=O)N[C@@H](CCC(=O)C(=O)NC)C(=O)Nc1cccn(CC(=O)NC2C3CC4CC(C3)CC2C4)c1=O (stereo partly drawn) [II-204, (S)-2-(4-ethyl-1,2,3-thiadiazole-5-carboxamido)-N1-(1-(2-(2-adamantylamino)-2-oxoethyl)-2-oxo-1,2-dihydropyridin-3-yl)-N6-methyl-5-oxohexanediamide]",–,< 1,1 to 3,–,–,40 to 400,–,–,–,–,–,–,–
"CNC(=O)C(=O)CC[C@H](NC(=O)c1snnc1C=O)C(=O)Nc1cccn(CC(=O)NC2C3CC4CC(C3)CC2C4)c1=O (stereo partly drawn) [II-205, (S)-2-(4-formyl-1,2,3-thiadiazole-5-carboxamido)-N1-(1-(2-(2-adamantylamino)-2-oxoethyl)-2-oxo-1,2-dihydropyridin-3-yl)-N6-methyl-5-oxohexanediamide]",–,< 1,< 1,–,–,40 to 400,–,–,–,–,–,–,–
"CNC(=O)C(=O)CC[C@H](NC(=O)c1snnc1CO)C(=O)Nc1cccn(CC(=O)NC2C3CC4CC(C3)CC2C4)c1=O (stereo partly drawn) [II-206, (S)-2-(4-(hydroxymethyl)-1,2,3-thiadiazole-5-carboxamido)-N1-(1-(2-(2-adamantylamino)-2-oxoethyl)-2-oxo-1,2-dihydropyridin-3-yl)-N6-methyl-5-oxohexanediamide]",–,< 1,< 1,–,–,40 to 400,–,–,–,–,–,–,–
"CNC(=O)C(=O)CC[C@H](NC(=O)c1cncn1C)C(=O)Nc1cccn(CC(=O)NC23CC4CC(CC(C4)C2)C3)c1=O [II-207, (S)-N1-(1-(2-(1-adamantylamino)-2-oxoethyl)-2-oxo-1,2-dihydropyridin-3-yl)-N6-methyl-2-(1-methyl-1H-imidazole-5-carboxamido)-5-oxohexanediamide]",–,< 1,< 1,–,–,40 to 400,–,–,–,–,–,–,–
"CNC(=O)C(=O)CC[C@H](NC(=O)c1nccn1C)C(=O)Nc1cccn(CC(=O)NC[C@@H]2CC[C@H]3C[C@@H]2C3(C)C)c1=O [II-208, (S)-N1-(1-(2-(((1S,2R,5S)-6,6-dimethylbicyclo[3.1.1]heptan-2-yl)methylamino)-2-oxoethyl)-2-oxo-1,2-dihydropyridin-3-yl)-N6-methyl-2-(1-methyl-1H-imidazole-2-carboxamido)-5-oxohexanediamide]",–,< 1,1 to 3,–,–,400 to 2500,–,–,–,–,–,–,–
"CNC(=O)C(=O)CC[C@H](NC(=O)c1c[nH]cn1)C(=O)Nc1cccn(CC(=O)NC[C@@H]2CC[C@@H]3C[C@H]2C3(C)C)c1=O [II-209, (S)-N1-(1-(2-(((1R,2R,5R)-6,6-dimethylbicyclo[3.1.1]heptan-2-yl)methylamino)-2-oxoethyl)-2-oxo-1,2-dihydropyridin-3-yl)-2-(1H-imidazole-4-carboxamido)-N6-methyl-5-oxohexanediamide]",–,< 1,1 to 3,–,–,400 to 2500,–,–,–,–,–,–,–
"CNC(=O)C(=O)CC[C@H](NC(=O)c1cncn1C)C(=O)Nc1cccn(CC(=O)NC23CC4CC(C)(CC(C)(C4)C2)C3)c1=O [II-210, (S)-N1-(1-(2-(3,5-dimethyladamantane-1-amino)-2-oxoethyl)-2-oxo-1,2-dihydropyridin-3-yl)-N6-methyl-2-(1-methyl-1H-imidazole-5-carboxamido)-5-oxohexanediamide]",–,< 1,1 to 3,–,–,40 to 400,–,–,–,–,–,–,–
"CNC(=O)C(=O)CC[C@H](NC(=O)c1cncn1C)C(=O)Nc1cccn(CC(=O)NC23CC4(C)CC(C)(CC(C)(C4)C2)C3)c1=O [II-211, (S)-N1-(1-(2-(3,5,7-trimethyl-1-adamantylamino)-2-oxoethyl)-2-oxo-1,2-dihydropyridin-3-yl)-N6-methyl-2-(1-methyl-1H-imidazole-5-carboxamido)-5-oxohexanediamide]",–,< 1,1 to 3,–,–,40 to 400,–,–,–,–,–,–,–
